Assay results reported in patent publication US20230303552A1, “ARYLSULFONYL DERIVATIVES AND THEIR USE AS MUSCARINIC ACETYLCHOLINE RECEPTOR M5 INHIBITORS” (Vanderbilt University, priority 2020, published 2023).

Biological target: T1, human M5 receptors (hM5) (Homo sapiens, UniProt P08912)
T1 construct: expressed in transfected cells
T1 sequence (P08912 1-532): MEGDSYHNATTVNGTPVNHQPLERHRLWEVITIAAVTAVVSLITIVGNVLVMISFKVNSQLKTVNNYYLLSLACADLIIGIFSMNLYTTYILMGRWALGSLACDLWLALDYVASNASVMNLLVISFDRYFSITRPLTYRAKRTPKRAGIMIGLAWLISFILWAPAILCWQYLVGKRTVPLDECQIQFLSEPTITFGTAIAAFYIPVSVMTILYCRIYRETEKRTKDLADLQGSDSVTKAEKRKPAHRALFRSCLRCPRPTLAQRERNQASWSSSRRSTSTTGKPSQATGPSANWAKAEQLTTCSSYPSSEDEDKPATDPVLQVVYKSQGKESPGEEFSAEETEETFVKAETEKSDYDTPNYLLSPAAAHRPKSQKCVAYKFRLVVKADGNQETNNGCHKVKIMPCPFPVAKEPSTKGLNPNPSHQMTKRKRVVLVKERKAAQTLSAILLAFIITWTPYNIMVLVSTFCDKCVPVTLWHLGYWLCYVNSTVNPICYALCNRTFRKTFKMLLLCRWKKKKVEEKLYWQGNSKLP
Experiment: Cell-based functional calcium mobilization assay of mAChR M5 activity (inhibition of EC80 acetylcholine response) in CHO cells
Conditions: CHO cells stably expressing hM5; for IC50: calcium flux (Fluo-4), EC80 acetylcholine addition; for EC80 MIN: minimum of EC80 acetylcholine response, normalized to maximum acetylcholine response
Procedure, shortened: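 CHO cells stably expressing human M5, loaded with Fluo-4 AM in HBSS/20 mM HEPES/2.5 mM probenecid pH 7.4. Compound added 140 s before acetylcholine EC20, then EC80 added 125 s later. Calcium flux normalized to maximal acetylcholine response; IC50 from ten-point curves in the EC80 window.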

Compound | IC50 [µM] | EC80 MIN [%]
C[C@@H]1CN(S(=O)(=O)c2ccc3c(c2)CCO3)C[C@@H]1C(=O)Nc1ccc2scnc2c1 [Compound 111, (3R,4S)-N-(benzo[d]thiazol-5-yl)-1-((2,3-dihydrobenzofuran-5-yl)sulfonyl)-4-methylpyrrolidine-3-carboxamide] | 0.038 | 3
Cc1nn(C)cc1S(=O)(=O)N1CCC(C)(C(=O)Nc2ccc3scnc3c2)CC1 [Compound 112, N-(benzo[d]thiazol-5-yl)-1-((1,3-dimethyl-1H-pyrazol-4-yl)sulfonyl)-4-methylpiperidine-4-carboxamide] | > 10 | 58
O=C(Nc1ccc2scnc2c1)C1(F)CCN(S(=O)(=O)c2ccc3c(c2)CCO3)CC1 [Compound 113, N-(benzo[d]thiazol-5-yl)-1-((2.3-dihydrobenzofuran-5-yl)sulfonyl)-4-fluoropiperidine-4-carboxamide] | 0.712 | 10
O=C(Nc1ccc2scnc2c1)C1(F)CCN(S(=O)(=O)c2cccnc2)CC1 [Compound 114, N-(benzo[d]thiazol-5-yl)-4-fluoro-1-(pyridin-3-ylsulfonyl)piperidine-4-carboxamide] | 2.04 | 4
O=C(Nc1ccc2scnc2c1)C1(F)CCN(S(=O)(=O)c2cccc3nsnc23)CC1 [Compound 115, 1-(benzo[c][1,2,5]thiadiazol-4-ylsulfonyl)-N-(benzo[d]thiazol-5-yl)-4-fluoropiperidine-4-carboxamide] | > 10 | 51
Cc1ccc(S(=O)(=O)N2CCC(C(=O)Nc3ccc4scnc4c3)CC2)cn1 [Compound 124] | 0.105 | 3
CC1(C)COc2ccc(S(=O)(=O)N3CCC(C(=O)Nc4ccc5scnc5c4)CC3)cc21 [Compound 126, N-(benzo[d]thiazol-5-yl)-1-((3,3-dimethyl-2,3-dihydrobenzofuran-5-yl)sulfonyl)piperidine-4-carboxamide] | > 10 | 55
CC1(C)COc2ccc(S(=O)(=O)N3CC[C@@H](C(=O)Nc4ccc5scnc5c4)C3)cc21 [Compound 127, (R)-N-(benzo[d]thiazol-5-yl)-1-((3,3-dimethyl-2,3-dihydrobenzofuran-5-yl)sulfonyl)pyrrolidine-3-carboxamide] | > 10 | 8
C[C@H]1CN(S(=O)(=O)c2ccc3c(c2)C(C)(C)CO3)C[C@@H]1C(=O)Nc1ccc2scnc2c1 [Compound 128, (3R,4R)-N-(benzo[d]thiazol-5-yl)-1-((3,3-dimethyl-2,3-dihydrobenzofuran-5-yl)sulfonyl)-4-methylpyrrolidine-3-carboxamide] | > 10 | 29
C[C@@H]1CN(S(=O)(=O)c2ccc3c(c2)C(C)(C)CO3)C[C@@H]1C(=O)Nc1ccc2scnc2c1 [Compound 129] | 6.49 | 4
O=C(Nc1ccc2cccnc2c1)C1CCN(S(=O)(=O)c2ccc3c(c2)CCO3)CC1 [Compound 135, 1-((2,3-dihydrobenzofuran-5-yl)sulfonyl)-N-(quinolin-7-yl)pipcridinc-4-carboxamide] | 1.8 | 3
O=C(Nc1ccc2scnc2c1)[C@@H]1CCN(S(=O)(=O)c2ccc3ncsc3c2)C1 [Compound 136, (R)-N-(benzo[d]thiazol-5-yl)-1-(benzo[d]thiazol-6-ylsulfonyl)pyrrolidine-3-carboxamide] | 0.29 | 2
Cc1nn(C)cc1S(=O)(=O)N1CC[C@@H](C(=O)Nc2ccc3scnc3c2)C1 [Compound 137, (R)-N-(benzo[d]thiazol-5-yl)-1-((1,3-dimethyl-1H-pyrazol-4-yl)sulfonyl)pyrrolidine-3-carboxamide] | > 10 | 6
CC1(C)CN(S(=O)(=O)c2ccc3c(c2)CCO3)CCC1C(=O)Nc1ccc2scnc2c1 (stereo not shown) [Compound 138, N-(benzo[d]thiazol-5-yl)-1-((2,3-dihydrobenzofuran-5-yl)sulfonyl)-3,3-dimethylpiperidine-4-carboxamide] | > 10 | 7
[2H]C1([2H])Oc2ccc(S(=O)(=O)N3CCC(C(=O)Nc4ccc5scnc5c4)CC3)cc2C1([2H])[2H] [Compound 139, N-(benzo[d]thiazol-5-yl)-1-((2,3-dihydrobenzofuran-5-yl-2,2,3,3-d4)sulfonyl)piperidine-4-carboxamide] | 0.076 | 2
[2H]C1([2H])Oc2ccc(S(=O)(=O)N3CC[C@@H](C(=O)Nc4ccc5scnc5c4)C3)cc2C1([2H])[2H] [Compound 140] | 0.035 | 2

Compound | IC50 [µM] | EC80 MIN [%]
CC1(C)CN(S(=O)(=O)c2ccc3ncsc3c2)CCC1C(=O)Nc1ccc2scnc2c1 (stereo not shown) [Compound 141, N-(benzo[d]thiazol-5-yl)-1-(benzo[d]thiazol-6-ylsulfonyl)-3,3-dimethylpiperidine-4-carboxamide] | > 10 | 38
CC1(C)CN(S(=O)(=O)c2ccc(Cl)nc2)CCC1C(=O)Nc1ccc2scnc2c1 (stereo not shown) [Compound 142] | 4.44 | 3
Cc1nn(C)cc1S(=O)(=O)N1CCC(C(=O)Nc2ccc3scnc3c2)C(C)(C)C1 (stereo not shown) [Compound 143, N-(benzo[d]thiazol-5-yl)-1-((1,3-dimethyl-1H-pyrazol-4-yl)sulfonyl)-3,3-dimethylpiperidine-4-carboxamide] | > 10 | 40
CC1(C)CN(S(=O)(=O)c2cc3c(cc2F)OCC3)CCC1C(=O)Nc1ccc2scnc2c1 (stereo not shown) [Compound 144, N-(benzo[d]thiazol-5-yl)-1-((6-fluoro-2,3-dihydrobenzofuran-5-yl)sulfonyl)-3,3-dimethylpiperidine-4-carboxamide] | > 10 | 25
O=C(Nc1ccc2scnc2c1)C1CCN(S(=O)(=O)c2cc3c(cc2F)OCC3)CC1(F)F (stereo not shown) [Compound 147, N-(benzo[d]thiazol-5-yl)-3,3-difluoro-1-((6-fluoro-2.3-dihydrobenzofuran-5-yl)sulfonyl)piperidine-4-carboxamide] | 0.404 | 2
[2H]C1([2H])Oc2ccc(S(=O)(=O)N3C[C@@H](C)[C@@H](C(=O)Nc4ccc5scnc5c4)C3)cc2C1([2H])[2H] [Compound 148, (3R,4S)-N-(benzo[d]thiazol-5-yl)-1-((2,3-dihydrobenzofuran-5-yl-2,2,3,3-d4)sulfonyl)-4-methylpyrrolidine-3-carboxamide] | 0.03 | 3
Cc1noc2ncc(S(=O)(=O)N3CC[C@@H](C(=O)Nc4ccc5scnc5c4)C3)cc12 [Compound 149, (R)-N-(benzuo[d]thiazo1-5-yl)-1-((3-methylisoxazolo[5,4-b]pyridin-5-yl)sulfonyl)pyrrolidine-3-carboxamide] | > 10 | 36
O=C(Nc1ccc2scnc2c1)[C@@H]1CCN(S(=O)(=O)c2ccc3c(c2)CCC3)C1 [Compound 150, (R)-N-(benzo[d]thiazol-5-yl)-1-((2,3-dihydro-1H-inden-5-yl)sulfonyl)pyrrolidine-3-carboxamide] | > 10 | 
Cc1noc(C)c1S(=O)(=O)N1CC[C@@H](C(=O)Nc2ccc3scnc3c2)C1 [Compound 151, (R)-N-(benzo[d]thiazo1-5-yl)-1-((3,5-dimethylisoxazol-4-yl)sulfonyl)pyrrolidine-3-carboxamide] | 3.84 | 5
O=C(Nc1ccc2scnc2c1)[C@@H]1CCN(S(=O)(=O)c2ccc3ncccc3c2)C1 [Compound 152, (R)-N-(benzo[d]thiazol-5-yl)-1-(quinolin-6-ylsulfonyl)pyrrolidine-3-carboxamide] | 0.352 | 3
COc1ccc(S(=O)(=O)N2CC[C@@H](C(=O)Nc3ccc4scnc4c3)C2)c(C)c1 [Compound 153, (R)-N-(benzo[d]thiazo1-5-yl)-1-((4-methoxy-2-methylphenyl)sulfonyl)pyrr olidine-3-carboxarnide] | 1.47 | 3
O=C(Nc1ccc2scnc2c1)[C@@H]1CCN(S(=O)(=O)c2ccc3c(c2)OCO3)C1 [Compound 154, (R)-1-(benzo[d][1,3]dioxol-5-yisulfonyl)-N-(benzo[d]thiazol-5-yl)pyrrolidine-3-carboxamide] | 0.35 | 3
O=C(Nc1ccc2scnc2c1)C1CCN(S(=O)(=O)c2ccccc2-c2ccno2)CC1 [Compound 155, N-(benzo[d]thiazol-5-yl)-1-((2-(isoxazol-5-yl)phenyl)sulfonyl)piperidine-4-carboxamide] | > 10 | 54
O=C(Nc1ccc2scnc2c1)C1CCN(S(=O)(=O)c2ccccc2F)CC1 [Compound 156, N-(benzo[d]thiazol-5-yl)-1-((2-fluorophcnyl)sulfonyl)piper idine-4-carboxaniide] | > 10 | 6
Cn1cc(S(=O)(=O)N2CCC(C(=O)Nc3ccc4scnc4c3)CC2)c(C(F)(F)F)n1 [Compound 157, N-(benzo[d]thiazol-5-yl)-1-((1-methyl-3-(trifluoromethyl)-1H-pyrazo1-4-yl)sulfonyl)piperidine-4-carboxamide] | 2.34 | 4
